Experimental data taken from US6514981B1, “Methods of modulating tyrosine protein kinase function with indolinone compounds” (Sugen, Inc., priority 1998, dated 2003).

Target: EGFR (Homo sapiens, UniProt P00533)
Assay: EGF receptor phosphorylation assay in cells (ELISA)
Format: cell-based
Design: expressed in transfected cells; host or cells: NIH 3T3/C7 cell line
Details: NIH 3T3/C7 cells, EGF stimulation
Description: EGF Receptor kinase activity in cells genetically engineered to express human EGF-R was measured as described below: 1. Coat ELISA plates (Coming, 96 well, Cat. #25805-96) wit 05-101 antibody at 0.5 μg per well in PBS, 150 μL final volume/well, and store overnight at 4° C. Coated plates are good for up to 10 days when stored at 4° C. 1. NIH 3T3/C7 cell line (Honegger, et al., Cell 51:199-209, 1987) can be use for this assay. 3. Resuspend cells in seeding medium (DMEM, 0.5% bovine serum), and count the cells using trypan blue. Viability above 90% is acceptable. Seed cells in DMEM medium (0.5% bovine serum) at a density of 10,000 cells per well, 100 μL per well, in a 96 well microtiter plate. Incubate seeded cells in 5% CO2 at 37° C. for about 40 hours. 1. Check seeded cells for contamination using an inverted microscope. Dilute drug stock (10 mg/mL in DMSO) 1:10 in DMEM medium, then transfer 5 μL to a test well for a final drug dilution of 1:200 and a final DMSO concentration of […]. […] The maximal phosphotyrosine signal is determined by subtracting the value of the negative controls from the positive controls. The percent inhibition of phosphotyrosine content for extract-containing wells is then calculated, after subtraction of the negative controls. The IC50 values measured in the EGF receptor phosphorylation assay for the compound of formula VI are depicted in Table 3: […]

Chain of EGFR (P00533 25-1210): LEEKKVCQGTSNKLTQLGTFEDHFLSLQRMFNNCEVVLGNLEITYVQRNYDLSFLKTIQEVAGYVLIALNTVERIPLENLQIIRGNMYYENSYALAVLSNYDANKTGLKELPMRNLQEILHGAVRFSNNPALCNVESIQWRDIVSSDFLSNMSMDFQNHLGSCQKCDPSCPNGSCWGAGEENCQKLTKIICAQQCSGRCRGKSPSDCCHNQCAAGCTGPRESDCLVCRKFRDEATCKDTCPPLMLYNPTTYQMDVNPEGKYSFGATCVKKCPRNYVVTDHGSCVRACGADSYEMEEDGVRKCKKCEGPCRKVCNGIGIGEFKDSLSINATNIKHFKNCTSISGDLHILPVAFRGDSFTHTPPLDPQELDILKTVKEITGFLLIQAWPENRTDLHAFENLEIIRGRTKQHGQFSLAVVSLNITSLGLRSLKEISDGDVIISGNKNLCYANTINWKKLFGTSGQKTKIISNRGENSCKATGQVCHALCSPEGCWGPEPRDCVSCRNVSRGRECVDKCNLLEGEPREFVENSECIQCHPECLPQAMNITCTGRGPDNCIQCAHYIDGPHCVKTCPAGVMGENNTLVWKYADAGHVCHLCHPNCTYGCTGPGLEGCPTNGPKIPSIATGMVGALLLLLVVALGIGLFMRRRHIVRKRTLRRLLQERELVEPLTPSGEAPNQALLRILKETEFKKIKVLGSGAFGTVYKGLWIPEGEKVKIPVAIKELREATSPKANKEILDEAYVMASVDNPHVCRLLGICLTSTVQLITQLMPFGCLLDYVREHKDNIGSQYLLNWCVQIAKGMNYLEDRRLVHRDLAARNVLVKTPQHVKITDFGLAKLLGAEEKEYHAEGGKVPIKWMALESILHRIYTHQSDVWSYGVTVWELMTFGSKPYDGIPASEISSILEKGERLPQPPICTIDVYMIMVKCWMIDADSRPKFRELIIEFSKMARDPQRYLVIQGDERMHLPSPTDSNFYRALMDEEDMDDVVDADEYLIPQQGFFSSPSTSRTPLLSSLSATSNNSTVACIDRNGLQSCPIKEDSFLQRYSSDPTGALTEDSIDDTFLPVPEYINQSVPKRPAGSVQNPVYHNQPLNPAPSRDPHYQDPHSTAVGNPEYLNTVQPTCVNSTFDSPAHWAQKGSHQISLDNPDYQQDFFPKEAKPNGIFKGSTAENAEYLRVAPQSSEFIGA

Cc1cc(/C=C2/C(=O)Nc3ccccc32)c(C)c2c1[nH]c1ccccc12 [VI]
IC50: > 100 µM
